Assay [1] has as its target T1, SARS-CoV-2 MD (Severe acute respiratory syndrome coronavirus 2, UniProt P0DTD1). Type of assay: binding.
Assay [2] addresses T1, SARS-CoV-2 MD. Type of assay: biochemical.
The target in assay [3] is T2, CHIKV MD (Chikungunya virus, UniProt Q8JUX6). The class given is biochemical.
Assay [4] concerns the target T3, MAYV MD (Mayaro virus, UniProt Q8QZ73). Type of assay: biochemical.
In another assay the test system is viral MDs. The class given is biochemical.
Assay [5] deals with T1, SARS-CoV-2 MD. The class given is binding. This is another data set of the same source.
For assay [6], the target named is T2, CHIKV MD. Description: biochemical. The class given is binding.
Another assay has as its target hPARP14 MD2 (Homo sapiens, UniProt Q460N5). Kind of assay: biochemical. The class given is binding.
The target of assay [7] is T2, CHIKV MD. Type of assay: binding.
For assay [8], the target named is T3, MAYV MD. The class given is binding.

Values joined by “and” are separate entries in the source; they are usually repeats but may differ in a detail not shown here. Equal entries are not always repeated.

This is an account of results in article PMC9284540 (Journal of Molecular Biology, 2022).

By Kd is commonly meant the concentration at which binding is half-saturated. A higher Kd goes with lower affinity.

T3 sequence (Q8QZ73 1335-1493 limits assumed): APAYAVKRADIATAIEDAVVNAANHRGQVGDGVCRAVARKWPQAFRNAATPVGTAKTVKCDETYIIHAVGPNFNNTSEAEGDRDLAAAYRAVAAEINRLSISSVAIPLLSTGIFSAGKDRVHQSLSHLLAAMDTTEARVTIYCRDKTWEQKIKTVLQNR
T2 sequence (Q8JUX6 1334-1493 limits assumed): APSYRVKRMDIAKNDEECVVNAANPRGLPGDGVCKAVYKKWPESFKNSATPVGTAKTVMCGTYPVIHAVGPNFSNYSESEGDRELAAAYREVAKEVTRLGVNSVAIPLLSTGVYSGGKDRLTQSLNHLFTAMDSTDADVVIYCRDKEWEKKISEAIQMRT
Chain of hPARP14 MD2 (Q460N5 999-1191): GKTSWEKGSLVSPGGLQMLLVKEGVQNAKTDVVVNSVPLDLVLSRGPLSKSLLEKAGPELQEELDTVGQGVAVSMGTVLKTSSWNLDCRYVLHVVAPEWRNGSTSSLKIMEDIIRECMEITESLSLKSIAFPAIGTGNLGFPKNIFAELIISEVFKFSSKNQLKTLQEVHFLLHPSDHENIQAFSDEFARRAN

In the case of `Nc1ncnc2c1ncn2[C@@H]1O[C@H](CO)[C@@H](O)[C@H]1O` [Adenosine], the “exchange regime on NMR time scale between free and bound form” value on SARS-CoV-2 MD [1] is given as “fast exchange regime”.

For the compound `N#C[C@@]1(c2ccc3c(N)ncnn23)O[C@H](CO)[C@@H](O)[C@H]1O` [GS-441524], the “Initial substrate decay rate k” value was 0.121 ± 0.002 µM/min and 0.075 ± 0.003 µM/min at SARS-CoV-2 MD [2]; 0.179 ± 0.003 µM/min at CHIKV MD [3]; 0.190 ± 0.002 µM/min and 0.153 ± 0.003 µM/min on MAYV MD [4]. The “reduction of the k value” at SARS-CoV-2 MD [2] is listed as 60%; with viral MDs, 15–32%. On SARS-CoV-2 MD [5], the “-T*ΔS” value is -1.55 kcal/mol. The ΔH at SARS-CoV-2 MD [5] was -5.25 ± 0.13 kcal/mol. For the same compound, the ΔS entry at SARS-CoV-2 MD [5] is recorded as “+5.2 cal/mol K-1”. The values for the Kd on CHIKV MD [6] and on hPARP14 MD2 were ~100 µM and ~250 µM, respectively. The “exchange regime on NMR time scale between free and bound form” value at SARS-CoV-2 MD [1] is on record as “slow exchange regime”. The “exchange regime on NMR time scale” value is “fast and intermediate exchange regime” at CHIKV MD [7]; “fast and intermediate exchange regime” on MAYV MD [8].

For the compound `CCC(CC)COC(=O)[C@H](C)N[P@](=O)(OC[C@H]1O[C@@](C#N)(c2ccc3c(N)ncnn23)[C@H](O)[C@@H]1O)Oc1ccccc1` [Remdesivir], the “Initial substrate decay rate k” value at SARS-CoV-2 MD [2] was 0.157 ± 0.012 µM/min and 0.169 ± 0.002 µM/min.
